Literature values in US20040176344A1, “METHOD TO TREAT PATIENTS WITH AMYOTROPHIC LATERAL SCLEROSIS AND THE LIKE” (priority 2004, published 2004).

Assays:
[1] = acute intermittent porphyria; Khanderia 1986
mouse of ALS = conditions: mouse model of ALS; J Neurochem 2003

## C=CC1=C(C)c2cc3[n-]c(cc4[n-]c(cc5nc(cc1n2)C(C)=C5C=C)c(C)c4CCC(=O)O)c(CCC(=O)O)c3C.O.[Fe+2] [hematin]
[1]
  adverse effect that precludes prophylactic use: causes circulatory collapse

## Cl.O=C([O-])c1ccc(-c2c3nc(c(-c4ccc(C(=O)O)cc4)c4nc(c(-c5ccc(C(=O)O)cc5)c5ccc([nH]5)c(-c5ccc(C(=O)[O-])cc5)c5ccc2[n-]5)C=C4)C=C3)cc1.[Fe+3] [FeTCPP]
Mouse of ALS
  effect on disease progression: helpful in slowing disease progression
